Data taken from patent US9212182B2, “Bicyclic sulfonamide compounds as sodium channel inhibitors” (AMGEN INC., priority 2013, dated 2015).

These compounds were tested against Nav 1.7 (Homo sapiens (Human), UniProt Q15858) (assay: in-vitro Nav 1.7 PX (IC50)). Conditions: not given.
Format: cell-based

Nav 1.7, sequence (Q15858 whole entry): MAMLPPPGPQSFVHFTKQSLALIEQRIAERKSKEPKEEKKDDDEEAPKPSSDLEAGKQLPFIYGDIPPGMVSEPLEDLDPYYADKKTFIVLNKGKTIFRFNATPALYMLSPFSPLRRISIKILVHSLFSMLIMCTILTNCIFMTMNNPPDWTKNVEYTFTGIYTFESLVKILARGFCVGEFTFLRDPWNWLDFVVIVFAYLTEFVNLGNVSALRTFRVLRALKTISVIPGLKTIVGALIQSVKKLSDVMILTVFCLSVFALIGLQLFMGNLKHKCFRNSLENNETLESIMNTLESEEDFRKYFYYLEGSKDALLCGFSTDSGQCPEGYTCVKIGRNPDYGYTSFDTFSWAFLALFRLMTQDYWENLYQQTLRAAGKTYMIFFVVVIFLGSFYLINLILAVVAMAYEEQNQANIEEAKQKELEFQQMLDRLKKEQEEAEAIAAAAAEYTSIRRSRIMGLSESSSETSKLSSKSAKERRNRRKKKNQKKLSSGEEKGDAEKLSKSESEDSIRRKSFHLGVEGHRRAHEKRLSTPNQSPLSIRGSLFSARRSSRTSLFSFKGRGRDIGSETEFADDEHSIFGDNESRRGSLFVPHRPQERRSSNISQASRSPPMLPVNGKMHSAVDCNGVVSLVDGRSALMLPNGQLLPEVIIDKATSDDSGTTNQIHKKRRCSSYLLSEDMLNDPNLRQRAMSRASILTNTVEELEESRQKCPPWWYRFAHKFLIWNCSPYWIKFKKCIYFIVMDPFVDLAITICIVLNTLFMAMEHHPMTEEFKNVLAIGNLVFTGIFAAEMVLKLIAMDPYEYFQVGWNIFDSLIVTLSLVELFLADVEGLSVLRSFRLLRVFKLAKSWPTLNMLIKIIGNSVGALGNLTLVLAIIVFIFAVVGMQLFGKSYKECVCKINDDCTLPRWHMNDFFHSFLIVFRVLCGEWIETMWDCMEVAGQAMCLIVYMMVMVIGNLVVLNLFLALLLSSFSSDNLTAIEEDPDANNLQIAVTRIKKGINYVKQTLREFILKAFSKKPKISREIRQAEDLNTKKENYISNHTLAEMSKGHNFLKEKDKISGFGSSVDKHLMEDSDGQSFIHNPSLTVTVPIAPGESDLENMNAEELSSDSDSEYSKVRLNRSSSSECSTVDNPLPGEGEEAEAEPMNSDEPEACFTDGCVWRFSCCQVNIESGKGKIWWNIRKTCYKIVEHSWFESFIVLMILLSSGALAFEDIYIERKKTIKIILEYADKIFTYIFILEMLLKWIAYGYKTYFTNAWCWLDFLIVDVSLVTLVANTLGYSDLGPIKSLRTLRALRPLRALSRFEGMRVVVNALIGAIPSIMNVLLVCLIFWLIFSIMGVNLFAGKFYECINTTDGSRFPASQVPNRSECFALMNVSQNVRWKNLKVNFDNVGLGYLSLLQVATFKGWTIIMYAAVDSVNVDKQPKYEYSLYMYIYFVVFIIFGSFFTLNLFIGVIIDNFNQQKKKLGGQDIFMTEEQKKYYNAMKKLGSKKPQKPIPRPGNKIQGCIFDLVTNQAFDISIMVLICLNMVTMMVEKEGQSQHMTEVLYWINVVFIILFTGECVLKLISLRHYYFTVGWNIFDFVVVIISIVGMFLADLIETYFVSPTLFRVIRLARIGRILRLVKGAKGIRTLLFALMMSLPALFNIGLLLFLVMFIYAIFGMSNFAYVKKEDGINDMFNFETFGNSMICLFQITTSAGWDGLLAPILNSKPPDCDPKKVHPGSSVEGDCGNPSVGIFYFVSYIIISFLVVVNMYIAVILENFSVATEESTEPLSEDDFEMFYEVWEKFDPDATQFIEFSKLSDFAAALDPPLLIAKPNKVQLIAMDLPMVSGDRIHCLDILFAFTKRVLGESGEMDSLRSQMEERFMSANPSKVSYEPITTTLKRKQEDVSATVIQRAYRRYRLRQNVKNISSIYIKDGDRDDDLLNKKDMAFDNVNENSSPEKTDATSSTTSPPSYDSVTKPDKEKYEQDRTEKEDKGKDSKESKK

Point of comparison: COc1ccc(CC#N)cc1-n1c(=O)ccc2cc(S(=O)(=O)Nc3ccon3)ccc21 [Example 1146, 1-(5-(cyanomethyl)-2-methoxyphenyl)-N-3-isoxazolyl-2-oxo-1,2-dihydro-6-quinolinesulfonamide], IC50 3590 nM. Against it:
- COc1cc(Br)c(F)cc1-n1c(=O)ccc2cc(S(=O)(=O)Nc3cc(OCC4CCC4)ncn3)ccc21 (atropisomer, axis not shown; (P)) [Example 1184, (P)-1-(4-bromo-5-fluoro-2-methoxyphenyl)-N-(6-(cyclobutylmethoxy)-4-pyrimidinyl)-2-oxo-1,2-dihydro-6-quinolinesulfonamide] — within 1.5-fold, 3360 nM
- COc1cc(-c2cccc(F)c2)c(Cl)cc1-n1c(=O)ccc2cc(S(=O)(=O)Nc3nncs3)ccc21 (atropisomer, axis not shown; (M)) [Example 354, (M)-1-(2-chloro-3′-fluoro-5-methoxy-[1,1′-biphenyl]-4-yl)-2-oxo-N-(1,3,4-THIADIAZOL-2-yl)-1,2-dihydroquinoline-6-sulfonamide] — 1.6-fold higher, 5860 nM
- COc1cnc(-c2cc(Cl)ccc2F)cc1-n1c(=O)ccc2cc(S(=O)(=O)Nc3ccon3)ccc21 [Example 1169, 1-(2-(5-chloro-2-fluorophenyl)-5-methoxy-4-pyridinyl)-N-3-isoxazolyl-2-oxo-1,2-dihydro-6-quinolinesulfonamide] — 4.5-fold lower, 805 nM
- COc1cc(-c2ccc(Cl)c(C)c2)c(Cl)cc1-n1c(=O)ccc2cc(S(=O)(=O)Nc3ccon3)ccc21 (atropisomer, axis not shown; (P)) [Example 471, (P)-1-(2,4′-dichloro-5-methoxy-3′-methyl-[1,1′-biphenyl]-4-yl)-N-(isoxazol-3-yl)-2-oxo-1,2-dihydroquinoline-6-sulfonamide] — 450-fold lower, 8 nM

Same assay, conditions: in-vitro Nav 1.7 PX data

Point of comparison: COc1ccc(C#N)cc1-c1cc(OC)c(-n2c(=O)ccc3cc(S(=O)(=O)Nc4ccon4)ccc32)cc1F [Example 718, 1-(5′-cyano-2-fluoro-2′,5-dimethoxy-4-biphenylyl)-N-3-isoxazolyl-2-oxo-1,2-dihydro-6-quinolinesulfonamide], IC50 153 nM. Against it:
- COc1cc(-c2cc(F)cc(C(F)(F)F)c2)ccc1-n1c(=O)ccc2cc(S(=O)(=O)Nc3cccnn3)ccc21 [Example 1095, 1-(3′-fluoro-3-methoxy-5′-(trifluoromethyl)-4-biphenylyl)-2-oxo-N-3-pyridazinyl-1,2-dihydro-6-quinolinesulfonamide] — 26-fold lower, 6 nM
- COc1cc(Cl)cc(-c2ccc(-n3c(=O)ccc4cc(S(=O)(=O)Nc5ncc(F)cn5)ccc43)c(OC)c2)c1 [Example 927, 1-(3′-chloro-3,5′-dimethoxy-4-biphenylyl)-N-(5-fluoro-2-pyrimidinyl)-2-oxo-1,2-dihydro-6-quinolinesulfonamide] — 10-fold lower, 15 nM
- COc1cc(-c2cc(Cl)cnc2OC)c(F)cc1-n1c(=O)ccc2cc(S(=O)(=O)Nc3ncc(F)cn3)ccc21 [Example 774, 1-(4-(5-chloro-2-methoxy-3-pyridinyl)-5-fluoro-2-methoxyphenyl)-N-(5-fluoro-2-pyrimidinyl)-2-oxo-1,2-dihydro-6-quinolinesulfonamide] — 3.2-fold lower, 48 nM
- COc1cc(-c2cccc(C(F)(F)F)c2)ccc1-n1c(=O)ccc2cc(S(=O)(=O)Nc3ccc(F)cn3)ccc21 [Example 918, N-(5-fluoro-2-pyridinyl)-1-(3-methoxy-3′-(trifluoromethyl)-4-biphenylyl)-2-oxo-1,2-dihydro-6-quinolinesulfonamide] — 1.6-fold lower, 93 nM
- COc1cc(-c2cccc(C(F)(F)F)c2)ccc1-n1c(=O)ccc2cc(S(=O)(=O)Nc3ccnc(C)n3)ccc21 [Example 947, 1-(3-methoxy-3′-(trifluoromethyl)-4-biphenylyl)-N-(2-methyl-4-pyrimidinyl)-2-oxo-1,2-dihydro-6-quinolinesulfonamide] — 3-fold lower, 51 nM
- COc1cc(-c2cc(F)cc(C(F)(F)F)c2)ccc1-n1c(=O)ccc2cc(S(=O)(=O)Nc3ncccn3)ccc21 [Example 1097] — 3.1-fold lower, 50 nM
- COc1ccc(-c2cc(Cl)ccc2F)cc1-n1c(=O)ccc2cc(S(=O)(=O)Nc3ccon3)ccc21 [Example 880, 1-(5′-chloro-2′-fluoro-4-methoxy-3-biphenylyl)-N-3-isoxazolyl-2-oxo-1,2-dihydro-6-quinolinesulfonamide] — 4.8-fold lower, 32 nM
- Cc1cc(-c2cc(C)c(-n3c(=O)ccc4cc(S(=O)(=O)Nc5ncccn5)ccc43)cc2F)ccc1Cl (atropisomer, axis not shown; (M)) [Example 650, (M)-1-(4′-chloro-2-fluoro-3′,5-dimethyl-4-biphenylyl)-2-oxo-N-2-pyrimidinyl-1,2-dihydro-6-quinolinesulfonamide] — 25-fold higher, 3800 nM
- COc1cc(F)cc(-c2ccc(-n3c(=O)ccc4cc(S(=O)(=O)Nc5cc(C)ncn5)ccc43)c(OC)c2)c1 [Example 1004, 1-(3′-fluoro-3,5′-dimethoxy-4-biphenylyl)-N-(6-methyl-4-pyrimidinyl)-2-oxo-1,2-dihydro-6-quinolinesulfonamide] — within 1.5-fold, 219 nM
- COc1cc(-c2cccc(C3CC3)c2)c(F)cc1-n1c(=O)ccc2cc(S(=O)(=O)Nc3ccon3)ccc21 [Example 790, 1-(3′-cyclopropyl-2-fluoro-5-methoxy-4-biphenylyl)-N-3-isoxazolyl-2-oxo-1,2-dihydro-6-quinolinesulfonamide] — 31-fold lower, 5 nM

Same assay, conditions: in-vitro Nav 1.7 PX data (PatchXpress)

For COc1cc(-c2ccc(-n3c(=O)ccc4cc(S(=O)(=O)Nc5ncco5)ccc43)c(OC)c2)ccc1Cl [Example 1039, 1-(4′-chloro-3,3′-dimethoxy-4-biphenylyl)-N-1,3-oxazol-2-yl-2-oxo-1,2-dihydro-6-quinolinesulfonamide], the IC50 was 149 nM.

Same assay, conditions: in-vitro PatchXpress (PX)

Point of comparison: COc1cc(-c2cc(F)c(F)cc2F)c(F)cc1-n1c(=O)ccc2cc(S(=O)(=O)Nc3ccon3)ccc21 (atropisomer, axis not shown; (M)) [Example 517, (M)-N-3-isoxazolyl-2-oxo-1-(2,2′,4′,5′-tetrafluoro-5-methoxy-4-biphenylyl)-1,2-dihydro-6-quinolinesulfonamide], IC50 21 nM. Against it:
- COc1cc(-c2cc(F)cc(Cl)c2)ccc1-n1c(=O)ccc2cc(S(=O)(=O)Nc3cccnn3)ccc21 (atropisomer, axis not shown; (M)) [Example 481, (M)-1-(3′-chloro-5′-fluoro-3-methoxy-4-biphenylyl)-2-oxo-N-3-pyridazinyl-1,2-dihydro-6-quinolinesulfonamide] — 150-fold higher, 3070 nM
- COc1cc(-c2ccc(C#N)c(Cl)c2)c(F)cc1-n1c(=O)ccc2cc(S(=O)(=O)Nc3ccon3)ccc21 (atropisomer, axis not shown; (M)) [Example 521, (M)-1-(3′-chloro-4′-cyano-2-fluoro-5-methoxy-4-biphenylyl)-N-3-isoxazolyl-2-oxo-1,2-dihydro-6-quinolinesulfonamide] — higher, > 10000 nM
- COc1cc(-c2ccc(C)c(C#N)c2)c(F)cc1-n1c(=O)ccc2cc(S(=O)(=O)Nc3ccon3)ccc21 (atropisomer, axis not shown; (M)) [Example 525, (M)-1-(3′-cyano-2-fluoro-5-methoxy-4′-methyl-4-biphenylyl)-N-3-isoxazolyl-2-oxo-1,2-dihydro-6-quinolinesulfonamide] — 230-fold higher, 4840 nM
- COc1cc(-c2cc(F)cnc2OC)c(F)cc1-n1c(=O)ccc2cc(S(=O)(=O)Nc3ccon3)ccc21 [Example 531, 1-(5-fluoro-4-(5-fluoro-2-methoxy-3-pyridinyl)-2-methoxyphenyl)-N-3-isoxazolyl-2-oxo-1,2-dihydro-6-quinolinesulfonamide] — 16-fold higher, 342 nM
